In publication PMC4464186 (EXCLI Journal, 2014):

Assays:
mice = format: in vivo; details: rotarod; doses up to 300 mg/kg; 0.5 and 4.0 h
Albino mice = format: in vivo; details: 100 mg/kg i.p.; with respect to control
[1] = tested on: metrazol-induced convulsion; details: metrazol-induced convulsion model, ref Sridhar et al., 2002, cited from earlier work

Row | Compound | neurotoxicity (motor impairment), in words (mice) | % Increased of immobility (Albino mice) [%] | protection ([1]; at 100 mg kg^-1) [%] | ED50 [1] [mg/kg]
1 | O=c1nc2[nH]c3ccc(Cl)cc3c2n[nH]1 [5e, 8-chloro-2H-[1,2,4]triazino[5,6-b]indol-3(5H)-one] | no motor impairment effect | 54.39 | – | –
2 | NC(=O)N1c2ccccc2C=Cc2ccccc21 [Carbamazepine, reference compound] | – | 58.63 | – | –
3 | O=c1nc2[nH]c3c(Br)cc(Br)cc3c2n[nH]1 [5i, 6,8-dibromo-2H-[1,2,4]triazino[5,6-b]indol-3(5H)-one] | – | 37.68 | – | –
4 | Cc1ccc2c(c1)C(=Nc1ccc(Cl)cc1)C(=O)N2 [3-(4-Chlorophenylimino)-5-methyl-1,3-dihydro-indol-2-one] | – | – | 87 | 53.61
5 | Cn1c2nc(=O)[nH]nc2c2cc(Br)cc(Br)c21 [5k, 6,8-dibromo-5-methyl-2H-[1,2,4]triazino[5,6-b]indol-3(5H)-one] | – | 45.96 | – | –
